Non-standard residues stand in square brackets, D forms with d. Residues, ends and D or L forms follow the SMILES beside them. No end group written: not given here. hArg = N=C(N)NCCCC[C@H](N)C(=O)O; dNle = CCCC[C@@H](N)C(=O)O
Key:
hNMUR2 = hNMUR2 (Homo sapiens, UniProt Q9GZQ4); experiment: In vitro functional assay, HEK-hR2 cells; format: cell-based; design: expressed in transfected cells; host or cells: FLP-In CHO or HEK-293 FLP-In cells (pcDNA5); HEK-293/aeq17 lines (pcDNA3.1) were also made; % Activity: concentration or dose not given beside the values
Sequence of hNMUR2 (Q9GZQ4 whole entry): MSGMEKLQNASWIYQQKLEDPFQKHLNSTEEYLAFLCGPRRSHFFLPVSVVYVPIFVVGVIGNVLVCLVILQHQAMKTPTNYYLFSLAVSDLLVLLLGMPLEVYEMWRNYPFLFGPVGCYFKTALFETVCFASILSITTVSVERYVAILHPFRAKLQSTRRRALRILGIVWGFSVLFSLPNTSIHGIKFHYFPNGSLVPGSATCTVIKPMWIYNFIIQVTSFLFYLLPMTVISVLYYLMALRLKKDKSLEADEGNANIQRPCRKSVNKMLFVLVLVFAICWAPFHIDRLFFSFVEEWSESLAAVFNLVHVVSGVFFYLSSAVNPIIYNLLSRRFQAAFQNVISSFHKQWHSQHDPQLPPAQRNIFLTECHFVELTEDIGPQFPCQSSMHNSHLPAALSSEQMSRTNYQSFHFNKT
Text: (§1) Human, mouse or rat cDNAs encoding NMUR1 or NMUR2 (as described in Howard et al. Nature 406: 70-74 (2000) were subcloned in pcDNA5 (Invitrogen) and transfected into FLP-In CHO cells and HEK-293 FLP-In cells purchased from Invitrogen (Carlsbad, Calif.) using lipofectamine (Invitrogen). The Flp-In system allows integration and expression of a particular gene of interest at a specific genomic location utilizing the Flp recombinase from yeast. The transfected cells were selected by growth in medium containing 200 μg/mL hygromycin (Invitrogen). Populations were frozen at early passage numbers, and these stocks were used for further studies. Stable clones that expressed the mRNAs were identified functionally by FLIPR as well as by RT-PCR. […] Two different rodent NMUR1 cell lines were thus generated: one with the codon as predicted from the genomic databases and another cell line with an engineered methionine (ATG) as the start codon. Additionally, stable cell lines expressing the human receptors were generated in HEK-293/aeq17 cells which stably express the aequorin gene under the CMV promoter. The human NMUR2 cDNA was cloned into pcDNA3.1 and human NMUR1 was subcloned into pIRES-puro (Clontech, Mountain View, Calif.), after transfection cells were selected in media containing G418 and either hygromycin (NMUR2) or puromycin (NMUR1).
(§2) The NMU receptors signal primarily through Gαq/11 proteins; therefore calcium mobilization assays can be utilized for functional activity.
(§3) Stable cell lines expressing human and or rodent NMUR1 or human NMUR2 receptors were plated at a density of 12,000 cells per well overnight on poly-lysine coated 384-well black-walled plates. The following day, the media was removed from the plates and the cells were subsequently loaded with Fluo-3 (Molecular Probes), a calcium sensitive dye, diluted in FLIPR buffer (1× Hank's buffered saline containing 20 mM HEPES, 0.1% BSA, 2.5 mM probenecid (Sigma) and 1.6 mM TR40). All reagents are from Invitrogen unless otherwise noted. Peptide stocks were resuspended in DMSO at a stock concentration of 2 mM and diluted in FLIPR buffer on the day of the experiment to a 4 μM working stock solution.
(§4) After a 90 minute incubation at room-temperature, cell plates were loaded onto a FLIPR (Molecular Devices) to monitor cellular fluorescence (excitation=488 nm; emission=540 nm) before and after compound/peptide addition. Eight to twelve point dose responses were tested on NMUR-expressing cell lines using FLIPR with 1 μM peptide as the highest dose. The response after peptide addition was taken as the maximum fluorescence units minus the fluorescence immediately prior to stimulation for each well. EC50 values were calculated using GraphPad Prism (San Diego, Calif.) software.
In addition to FLIPR, NMU receptor function can also be evaluated using an aequorin assay. Stable cell lines expressing the aequorin jelly fish gene can be used to report the activation of GPCRs by monitoring intracellular calcium mobilization. The objective is to identify compounds which specifically stimulate aequorin bioluminescence. Calcium-dependent luminescence is generated by the treatment of cells with the coelenterate luciferin, coelenterazine. Briefly, confluent monolayers of HEK-293/aeq 17 cells expressing hNMUR1 or hNMUR2 are “charged” with coelenterazine (Molecular Probes, Carlsbad, Calif.). Confluent T75 flasks are rinsed with media containing 300 μM glutathione and 0.1% FBS. Cells are incubated at 37° C. for one hour in 8 mL media, 0.1% FBS, 300 μM glutathione, and 20 μM coelenterazine. T75 flasks are subsequently rinsed with 6 mL ECB buffer (140 mM NaCl, 20 mM KCl, 20 mM HEPES, 5 mM glucose, 1 mM MgCl, 1 mM CaCl2, 0.1 mg/mL BSA, PH 7.3-7.4). Cells are removed from the flask in ECB buffer, pelleted, and resuspended at a density of 2×10^5 cells/mL. Agonists are added to the cells and activity is determined using a luminometer.

rat NMUR2 = rat NMUR2 (Rattus norvegicus, UniProt Q9ESQ4); experiment: FLIPR calcium mobilization assay, rat NMUR2; format: cell-based; design: expressed in transfected cells; host or cells: FLP-In CHO or HEK-293 FLP-In cells (pcDNA5); conditions: FLIPR, rat NMUR2
Sequence of rat NMUR2 (Q9ESQ4 whole entry): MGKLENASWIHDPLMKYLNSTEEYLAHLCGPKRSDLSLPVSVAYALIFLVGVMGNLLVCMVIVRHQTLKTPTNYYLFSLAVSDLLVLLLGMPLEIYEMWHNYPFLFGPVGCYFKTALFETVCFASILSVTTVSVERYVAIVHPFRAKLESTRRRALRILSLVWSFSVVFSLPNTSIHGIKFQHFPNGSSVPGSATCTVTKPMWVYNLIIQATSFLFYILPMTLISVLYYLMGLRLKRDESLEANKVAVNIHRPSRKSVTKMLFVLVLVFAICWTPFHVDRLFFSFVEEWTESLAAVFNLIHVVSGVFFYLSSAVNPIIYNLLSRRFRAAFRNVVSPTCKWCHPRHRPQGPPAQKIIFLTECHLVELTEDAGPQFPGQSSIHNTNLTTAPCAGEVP
Text: as §1, §2, §3, §4
In vitro responses of Neuromedin U receptor agonists (NMU1 to NMU25) in the FLIPR assay for human (Table 3), mouse (Table 4) and rat (Table 5) NMUR1 and NMUR2. EC50s are reported in nM values. Percent activity refers to the maximum response at 1 μM compared to the hNMU-25 response at the same concentration. NT=not tested.

Molecule | % Activity (hNMUR2; Table 8, HEK-hR2, functional) [%] | IC50 (hNMUR2; Table 8, HEK-hR2, functional) [µM] | % Activity (hNMUR2; Table 9, HEK-hR2, functional) [%] | other results
H-FRVDEEFQSPFASQSRGYFWRPRN-NH2 [Agonist G] | 14 | > 1 |  | 
Ac-C2FRVDEEFQSPFASQSRGYFLFRPRN-CONH2 [NMU9] ({Ac-C(PEG 40 kDa)}-FRVDEEFQSPFASQSRGYFLFRPRN-NH2) [C2 = Cys(PEG)240 kDa from Nektar (mPEG2-MAL-40 k)] |  |  |  | EC50 (rat NMUR2): 0.0045 µM
CCCC[C@@H](NC(=O)[C@H](CCCNC(=N)N)NC(=O)[C@H](C)NC(=O)[C@H](CCCNC(=N)N)NC(=O)[C@H](Cc1ccccc1)NC(=O)[C@H](CC(C)C)NC(=O)[C@H](Cc1ccccc1)NC(=O)[C@@H](N)Cc1c[nH]c2ccccc12)C(N)=O [Agonist K, WFLFRAR-(D-Nle)-CONH2] (H-WFLFRAR[dNle]-NH2) |  |  | 100 | EC50 (hNMUR2; Table 9, HEK-hR2, functional): 0.002 µM
CC(=O)N[C@@H](Cc1ccccc1)C(=O)N[C@H](CC(C)C)C(=O)N[C@@H](Cc1c[nH]c2ccccc12)C(=O)N[C@@H](CCCNC(=N)N)C(=O)N1CCC[C@H]1C(=O)N[C@@H](CCCNC(=N)N)C(=O)N[C@@H](CC(N)=O)C(N)=O [Agonist E, Ac-F-(D-L)-WRPRN-CONH2] (Ac-F[dL]WRPRN-NH2) | 1.8 | > 1 |  | 
CC(C)C[C@H](NC(=O)[C@H](Cc1c[nH]c2ccccc12)NC(=O)[C@H](Cc1ccccc1)NC(=O)CNC(=O)[C@H](CCCNC(=N)N)NC(=O)[C@H](CO)NC(=O)[C@H](CCC(N)=O)NC(=O)[C@H](CO)NC(=O)[C@H](C)NC(=O)[C@H](Cc1ccccc1)NC(=O)[C@@H]1CCCN1C(=O)[C@H](CO)NC(=O)[C@H](CCC(N)=O)NC(=O)[C@H](Cc1ccccc1)NC(=O)[C@H](CCC(=O)O)NC(=O)[C@H](CCC(=O)O)NC(=O)[C@H](CC(=O)O)NC(=O)[C@@H](NC(=O)[C@H](CCCNC(=N)N)NC(=O)[C@@H](N)Cc1ccccc1)C(C)C)C(=O)N[C@@H](Cc1ccccc1)C(=O)N[C@@H](CCCNC(=N)N)C(=O)N[C@@H](C)C(=O)N[C@@H](CCCCNC(=N)N)C(=O)N[C@@H](CC(N)=O)C(N)=O [Agonist P] (H-FRVDEEFQSPFASQSRGFWLFRA[hArg]N-NH2; N-terminus assumed) |  |  | 100 | 
CC(C)C[C@H](NC(=O)[C@H](Cc1c[nH]c2ccccc12)NC(=O)[C@H](Cc1ccccc1)NC(=O)CNC(=O)[C@H](CCCNC(=N)N)NC(=O)[C@H](CO)NC(=O)[C@H](CCC(N)=O)NC(=O)[C@H](CO)NC(=O)[C@H](C)NC(=O)[C@H](Cc1ccccc1)NC(=O)[C@@H]1CCCN1C(=O)[C@H](CO)NC(=O)[C@H](CCC(N)=O)NC(=O)[C@H](Cc1ccccc1)NC(=O)[C@H](CCC(=O)O)NC(=O)[C@H](CCC(=O)O)NC(=O)[C@H](CC(=O)O)NC(=O)[C@@H](NC(=O)[C@H](CCCNC(=N)N)NC(=O)[C@@H](N)Cc1ccccc1)C(C)C)C(=O)N[C@@H](Cc1ccccc1)C(=O)N[C@@H](CCCNC(=N)N)C(=O)N1CCC[C@H]1C(=O)N[C@@H](CCCCNC(=N)N)C(=O)N[C@@H](CC(N)=O)C(N)=O [Agonist O] (H-FRVDEEFQSPFASQSRGFWLFRP[hArg]N-NH2; N-terminus assumed) |  |  | 67 | EC50 (hNMUR2; Table 9, HEK-hR2, functional): 0.016 µM
C[C@@H](NC(=O)[C@H](Cc1ccccc1)NC(=O)[C@@H](N)Cc1ccc(O)cc1)C(=O)N[C@@H](Cc1c[nH]c2ccccc12)C(=O)N[C@@H](CCCNC(=N)N)C(=O)N1CCC[C@H]1C(=O)N[C@@H](CCCNC(=N)N)C(=O)N[C@@H](CC(N)=O)C(N)=O [Agonist D, YF-(D-A)-WRPRN-CONH2] (H-YF[dA]WRPRN-NH2; N-terminus assumed) | 0 | > 1 |  | 
H-FWLFRARN-NH2 [Agonist L] |  |  | 100 | 
CCCC[C@@H](NC(=O)[C@H](CCCNC(=N)N)NC(=O)[C@@H]1CCCN1C(=O)[C@H](CCCNC(=N)N)NC(=O)[C@H](Cc1ccccc1)NC(=O)[C@H](CC(C)C)NC(=O)[C@H](Cc1c[nH]c2ccccc12)NC(=O)[C@H](Cc1ccccc1)NC(=O)CNC(=O)[C@H](CCCNC(=N)N)NC(=O)[C@H](CO)NC(=O)[C@H](CCC(N)=O)NC(=O)[C@H](CO)NC(=O)[C@H](C)NC(=O)[C@H](Cc1ccccc1)NC(=O)[C@@H]1CCCN1C(=O)[C@H](CO)NC(=O)[C@H](CCC(N)=O)NC(=O)[C@H](Cc1ccccc1)NC(=O)[C@H](CCC(=O)O)NC(=O)[C@H](CCC(=O)O)NC(=O)[C@H](CC(=O)O)NC(=O)[C@@H](NC(=O)[C@H](CCCNC(=N)N)NC(=O)[C@@H](N)Cc1ccccc1)C(C)C)C(N)=O [Agonist Q] (H-FRVDEEFQSPFASQSRGFWLFRPR[dNle]-NH2) |  |  | 97 | 
H-YFGWRPRN-NH2 [Agonist C] | 0 | > 1 |  | 
CC(C)C[C@@H](NC(=O)[C@H](Cc1ccccc1)NC(=O)[C@@H](N)Cc1ccc(O)cc1)C(=O)N[C@@H](Cc1c[nH]c2ccccc12)C(=O)N[C@@H](CCCNC(=N)N)C(=O)N1CCC[C@H]1C(=O)N[C@@H](CCCNC(=N)N)C(=O)N[C@@H](CC(N)=O)C(N)=O [Agonist B, YF-(D-L)-WRPRN-CONH2] (H-YF[dL]WRPRN-NH2) | 0 | > 1 |  | 
Ac-FFRPRN-NH2 [Agonist F, Ac-FFRPRN-CONH2] | 96 | 0.87 |  | 
WALFRARN-NH2 [Agonist M] |  |  | 93 | EC50 (hNMUR2; Table 9, HEK-hR2, functional): 0.033 µM
CC(C)C[C@H](NC(=O)[C@H](Cc1ccccc1)NC(=O)[C@@H](N)Cc1ccc(O)cc1)C(=O)N[C@@H](Cc1ccccc1)C(=O)N[C@@H](CCCNC(=N)N)C(=O)N1CCC[C@H]1C(=O)N[C@@H](CCCNC(=N)N)C(=O)N[C@@H](CC(N)=O)C(N)=O [NMU-8, reference compound] |  |  | 104 | 
CC(C)C[C@H](NC(=O)[C@H](Cc1c[nH]c2ccccc12)NC(=O)[C@@H](N)Cc1ccccc1)C(=O)N[C@@H](Cc1ccccc1)C(=O)N[C@@H](CCCNC(=N)N)C(=O)N[C@@H](C)C(=O)N[C@@H](CCCCNC(=N)N)C(=O)N[C@@H](CC(N)=O)C(N)=O [Agonist J, FWLFRA-(Harg)-N-CONH2] (H-FWLFRA[hArg]N-NH2) |  |  | 59 | 
CC(C)C[C@H](NC(=O)[C@H](Cc1c[nH]c2ccccc12)NC(=O)[C@@H](N)Cc1ccccc1)C(=O)N[C@@H](Cc1ccccc1)C(=O)N[C@@H](CCCNC(=N)N)C(=O)N1CCC[C@H]1C(=O)N[C@@H](CCCCNC(=N)N)C(=O)N[C@@H](CC(N)=O)C(N)=O [Agonist I, FWLFRP-(Harg)-N-CONH2] (H-FWLFRP[hArg]N-NH2) |  |  | 99 | 
YFWRPRN-NH2 [Agonist A, YFWRPRN-CONH2] | 0 | > 1 |  | 
FALFRPRN-NH2 [Agonist N] |  |  | 100 | 

Reference: patent US20100075907A1, “NEUROMEDIN U RECEPTOR AGONISTS AND USES THEREOF” (priority 2006, published 2010)
